System: plasmacytoid dendritic cells
Experiment: Enhanced survival of isolated pDCs, cell viability by flow cytometry
Type: cell-based, human
Settings: 48 hours after treatment with IRM (3 μM) versus without IRM; FIG. 4
Method: Human pDCs were isolated from PBMC by immunomagnetic bead positive selection according to the manufacturer's instructions (Miltenyi Biotec, Inc., Auburn, Calif.). Briefly, PBMC were incubated with pDC-specific antibodies, BDCA-2 or BDCA-4, and the labeled cells were collected with a Miltenyi LS column. The positively selected cells were resuspended in X-Vivo 20 medium. Isolated pDCs were obtained as described in Example 2. The isolated pDCs were incubated in with and without IRM. Cell viability was measured in both cultures by flow cytometry after 24 hours and again after 48 hours. […] Pairwise comparisons of IRM-treated cells to the control group were performed using the Dunnett adjustment to preserve the overall 0.05 level of significance. If there were discrepancies between the 2 methods, the results from the arcsin transformed data were reported.

**Q.** CCOCc1nc2c(N)nc3ccccc3c2n1CC(C)(C)O [IRM, 4-amino-2-ethoxymethyl-α,α-dimethyl-1H-imidazo[4,5-c]quinoline-1-ethanol] was tested. Which “pDC survival (percent viable)” value did it give?
**A.** statistically significant higher rate of survival
